Measured values published in patent US20090082400A1, “SOLUBLE PYRONE ANALOGS METHODS AND COMPOSITIONS” (priority 2007, published 2009).
“And” between values parts separate entries of the source, which are not always exact repeats. Equal entries are not always repeated. “Also recorded” adds a separate entry of the source.

Assays:
[1] = Fisetin-sulfobutylether-7-β-cyclodextrin solution: concentration and precipitation; assay type: physicochemical; conditions: approximately 1:2.5 molar ratio of fisetin to Captisol; pH 7.8-7.9
Protocol: Captisol™ (17.9 g) is dissolved in 55 ml of distilled (or deionized) water. Fisetin (anhydrous) (965 mg) is then added to the above solution. The mixture is stirred vigorously followed by sonication if necessary to break up any clumps so that a homogeneous suspension is obtained.
While stirring vigorously, a 1 N NaOH solution (12.0 ml) is added slowly and for the formation of the fisetin-Captisol inclusion complex. The resulting solution will be at about pH 12.5 and may have an orange-brown color. The solution is not kept long at this pH, and is quickly neutralized in the following step.
While stirring, add 1N HCl solution (9 ml) dropwise to attain pH to 7.8-7.9. The final solution may be light-yellow to light orange in color. In some cases, the pH can be brought to below pH 7.8. […] Add water to a final volume of 100 ml.
This solution will contain approximately a 1:2.5 molar ratio of fisetin to Captisol. This procedure is for preparing an approximately 9.47 mg/ml fisetin solution. In some cases, the solution can be further diluted to make a solution for injection or for oral administration, for example, by diluting with either 0.9% saline solution and/or with a solution containing dextrose.

[2] = Zheng, et al. J. Pharm. Sci. 94(5), 2005; cited from earlier work
[3] = Sulfobutylether-7-β-cyclodextrin-quercetin aqueous composition: concentration and storage stability; assay type: physicochemical; conditions: quercetin at 10 mg/ml in water with sulfobutylether-7-β-cyclodextrin
Protocol: The flask is placed in an ice bath. […] Into the flask, 12 ml of 1 N sodium hydroxide is added over about 5 to 10 minutes. […] Into the flask is then added 10.5 ml of hydrochloric acid over 5 to 10 minutes at a slow enough rate to avoid precipitation. During the addition of the sodium hydroxide and the hydrochloric acid, the temperature is maintained at less than 20° C. DI water is then added to give total volume of 100 ml.

[4] = in vivo; cited from earlier work
rats = assay: Blood glucose levels in rats co-administered tacrolimus and flavonoid-sulfobutylether-7-β-cyclodextrin; assay type: in vivo, rat
Protocol: One set of 5 rats is treated from day 1 to day 25 with inert vehicle 2 intraperitoneally and treated from day 11 to day 25 with inert vehicle 1 intraperitoneally. […] A third set 5 of rats is treated from day 1 to day 25 intraperitoneally with tacrolimus (Prograf®) at 0.5 mg/kg, and treated from day 11 to day 25 with sulfobutylether-7-β-cyclodextrin (Q-Captisol) at 100 mg/kg. A fourth set 5 of rats is treated from day 1 to day 25 intraperitoneally with tacrolimus (Prograft®) at 0.5 mg/kg, and treated from day 11 to day 25 with fisetin-sulfobutylether-7-β-cyclodextrin (Fisetin-Captisol) at 85 mg/kg. The blood glucose level in the rats was measured on days 1, 10, 15, 20, and 25.

[5] = Pharmacokinetic parameters of i.v. tacrolimus in the presence of Q-Captisol in male Lewis rats; assay type: in vivo; conditions: rat, whole blood, iv, tacrolimus 1 mg/kg i.v.; for AUC / Cmax / Vd / clearance / half-life: male, Lewis, 1 mg/kg
Protocol: Male Lewis rats (Charles River Laboratories; 8-9 weeks old; mean weights 282-285 gm) are randomly assigned to treatment groups by a computerized body weight stratification procedure. Quercetin-Sulfobutylether-7-β-cyclodextrin (Q-Captisol) is prepared as a dosing solution using Captisol (B-cyclodextrin-sulfobutyl ether sodium salt; CyDex Inc.) along with 1 molar equivalent of sodium hydroxide. Q-Captisol is administered intraperitoneally (i.p.) at doses of 0, 25, 150, or 300 mg/kg (N=9 rats/dose). Tacrolimus (1 mg/kg i.v.) is dosed at 0.2 ml/kg directly from Prograf 5 mg/ml clinical dosing solutions. […] Whole blood is collected in EDTA tubes from the retro-orbital sinus under 60:40 CO2:O2 anesthesia at 9 time periods using N=3 animals per time period: 5, 15, and 30 min; 1, 2, 3, 6, 8, and 24 hr after administration of tacrolimus. To avoid excessive blood loss from individual animals, 3 blood samples per rat are collected at specified time intervals, so the final samples for analysis contained N=3 blood samples per time period. Whole blood samples are froze on dry ice and stored frozen at −80° C. prior to analysis.
Thawed whole blood (200 μl) is transferred to a separate glass tube with 100 μl of ascomycin (Internal Standard: 100 ng/ml in 10% methanol) and 20 μl of 10% methanol. Samples are treated with 400 μl of 0.1 M zinc sulfate and then 100 μl of acetonitrile to precipitate proteins. Samples are vortexed, then centrifuged at 4000 rpm for 5 min. 500 μl of supernatant is transferred to a clean glass tube containing 1000 μl of water and vortexed thoroughly. Mixtures are loaded onto a 100 mg C18 cartridge (SPE column) preconditioned with 1 ml of methanol, followed by 1 ml of water. The cartridge is washed 2× with 1 ml water, followed by 100 μl methanol. Tacrolimus and Internal Standard are eluted with 500 μl of methanol into an HPLC vial containing 1000 μl of 10 mM ammonium acetate. Samples are vortexed, then centrifuged at 4000 rpm for 10 min. A 10 μl aliquot of the clarified supernatant is injected directly onto LC/MS/MS for analysis. Calibration standards are prepared in blank rat whole blood at 1, 2, 5, 5, 10, 25, 50, 62.5, and 75 ng/ml and processed as described for the samples from rats dosed with tacrolimus.
The tacrolimus concentrations in plasma are determined using validated assay methods via an LC/MS/MS analytical technique. Major pharmacokinetic parameters, including area under the concentration versus time curve from time zero to the time of last measurable concentration (AUCt), area under the concentration versus time curve from time zero to infinite time (AUCinf), maximum observed concentration (Cmax), time to reach maximum observed blood or plasma concentration (Tmax), apparent terminal elimination rate constant (Kcl), clearance (CL), and half-life (T1/2), are determined from the plasma concentration data. […] These changes are believed to be caused by drug re-distribution from non-targeted organs to systemic circulation.

[6] = Pharmacokinetic parameters of oral tacrolimus in the presence of Q-Captisol in healthy human volunteers; assay type: in vivo
Protocol: Tacrolimus-quercetin pharmacokinetic interactions are evaluated in N=15 healthy male subjects in an open-label, three-way crossover study of i.v. or oral quercetin-sulfobutylether-7-β-cyclodextrin (Q-Captisol) administered in combination with oral tacrolimus. Q-Captisol stock dosing solutions are prepared in aqueous Captisol (CyDex Inc.) using sodium hydroxide to facilitate dissolution. The final solution is adjusted to a final pH=7.5 to 8.0 using dilute sodium hydroxide or HCl. Stock solutions are aseptically filtered into a sterile IV bag and diluted to final volume with sterile saline. Q-Captisol oral dosing solutions are prepared by transferring the stock solution to a dosing cup and diluting to the final volume with deionized water. Oral tacrolimus is administered using commercially-available Prograf® capsules, with each capsule containing 1 mg tacrolimus and the excipient lactose.
In Period 1, all subjects received only a single dose of oral tacrolimus (1 mg).
In Period 2, all subjects received 3× daily oral doses of Q-Captisol on Days 12, 13, and 14. On Day 14, subjects received a single dose of oral tacrolimus (1 mg)
In Period 3, i.v. infusions of Q-Captisol are administered over 20 min via an indwelling cannula. Tacrolimus (1 mg) is administered orally 60 min after the start of the administration of the i.v. Q-Captisol dose.
The dosing regimen is as follows:
Period 1: Day 1: single oral dose of 1 mg tacrolimus
Period 2: Day 12: three times per day (Q 8 hrs) single oral dose of 100 mg Q-Captisol
Day 13: three times per day (Q 8 hrs) single oral dose of 100 mg Q-Captisol
Day 14: three times per day (Q 8 hrs) single oral dose of 100 mg Q-Captisol, with a single oral dose of 1 mg tacrolimus following the first dose of Q-Captisol.
Period 3: Day 25: single IV infusion of 100 mg Q-Captisol followed by a single oral dose of 1 mg tacrolimus.
In Period 1, blood samples for determination of tacrolimus pharmacokinetics are obtained at 0 min (pre-dose), then at 0.25, 0.5, 1, 2, 4, 8, 12, 24, 48, and 72 hr. Similar time periods are used to obtain tacrolimus blood sampled in Periods 2 and 3. Blood samples (0.4 ml) are withdrawn into K2-EDTA tubes from either an indwelling cannula or via venipuncture, then processed to yield plasma. Plasma samples are transferred to fresh tubes and frozen prior to shipment to the analytical laboratory.
The tacrolimus concentrations in plasma are determined using validated assay methods via an LC/MS/MS analytical technique. Major pharmacokinetic parameters, including area under the concentration versus time curve from time zero to the time of last measurable concentration (AUCt), area under the concentration versus time curve from time zero to infinite time (AUCinf), maximum observed concentration (Cmax), time to reach maximum observed blood or plasma concentration (Tmax), apparent terminal elimination rate constant (Kcl), clearance (CL), and half-life (T1/2), are determined from the plasma concentration data. Samples are analysed from all 15 subjects; one subject is a clear outlier and is excluded from the final analysis (N=14 subjects per dose regimen).

[7] = 5 rats, Prograf 0.5 mg/kg i.p. once daily from Day 1 + Vehicle 1 from Day 11
[8] = rats, Prograf 0.5 mg/kg i.p. + Vehicle 1
[9] = rats, Prograf 0.5 mg/kg i.p. once daily from Day 1 + Vehicle 1 from Day 11
[10] = Q-Captisol Dose 0 mg/kg i.p. 30 min before
[11] = Q-Captisol Dose 25 mg/kg i.p. 30 min before
[12] = Q-Captisol Dose 150 mg/kg i.p. 30 min before
[13] = Q-Captisol Dose 300 mg/kg i.p. 30 min before
[14] = Period 1: single oral dose 1 mg tacrolimus alone
[15] = Period 2: 1 mg oral tacrolimus + Q-Captisol po 100 mg three times per day Days 12-14
[16] = male, plasma, Period 1: single oral dose 1 mg tacrolimus alone
[17] = male, plasma, Period 2: 1 mg oral tacrolimus + Q-Captisol po 100 mg three times per day Days 12-14
[18] = male, plasma, Period 3: 1 mg oral tacrolimus after single IV infusion of 100 mg Q-Captisol

Compound: O=c1c(O)c(-c2ccc(O)c(O)c2)oc2cc(O)ccc12 [fisetin]
- fisetin concentration of the solution [1]: approximately 9.47 mg/ml

Compound: O=c1c(O)c(-c2ccc(O)c(O)c2)oc2cc(O)cc(O)c12 [quercetin]
- stability in aqueous solution as a function of pH [2]: stable below pH 3; also recorded: degradation of quercetin above pH 5 became apparent
- stability without precipitation [3]: stable for more than two weeks without precipitation
- serum half-life [4]: 19 to 25 h

Compound: C=CC[C@@H]1/C=C(\C)C[C@H](C)C[C@H](OC)[C@H]2O[C@@](O)(C(=O)C(=O)N3CCCC[C@H]3C(=O)O[C@H](/C(C)=C/[C@@H]3CC[C@@H](O)[C@H](OC)C3)[C@H](C)[C@@H](O)CC1=O)[C@H](C)C[C@@H]2OC [tacrolimus]
- Blood glucose Day 1, Mean (rats; [7]): 1.27 g/L
- Blood glucose Day 10, Mean (rats; [7]): 1.49 g/L
- Blood glucose Day 15, Mean (rats; [7]): 2.54 g/L
- Blood glucose Day 20, Mean (rats; [7]): 2.93 g/L
- Blood glucose Day 25, Mean (rats; [7]): 2.55 g/L
- Blood glucose, Mean change from Day 1, Day 10 (rats; [8]): +0.22 g/l
- Blood glucose, Mean change from Day 1, Day 15 (rats; [8]): +1.27 g/l
- Blood glucose, Mean change from Day 1, Day 20 (rats; [8]): +1.66 g/l
- Blood glucose, Mean change from Day 1, Day 25 (rats; [8]): +1.28 g/l
- Blood glucose, Mean change from all vehicle control, Day 1 (rats; [8]): -0.10 g/L
- Blood glucose, Mean change from all vehicle control, Day 10 (rats; [8]): +0.23 g/l
- Blood glucose, Mean change from all vehicle control, Day 15 (rats; [8]): +1.27 g/l
- Blood glucose, Mean change from all vehicle control, Day 20 (rats; [8]): +1.81 g/l
- Blood glucose, Mean change from all vehicle control, Day 25 (rats; [8]): +1.38 g/l
- Blood glucose Day 1, individual rats (rats; [9]): 1.16 g/l (2×) and 1.34 g/l and 1.22 g/l and 1.47 g/l
- Blood glucose Day 10, individual rats (rats; [9]): 1.30 g/L and 1.39 g/L and 1.40 g/L and 1.09 g/L and 2.25 g/L
- Blood glucose Day 15, individual rats (rats; [9]): 3.72 g/L and 1.67 g/L and 2.31 g/L and 1.97 g/L and 3.02 g/L
- Blood glucose Day 20, individual rats (rats; [9]): 2.79 g/L and 3.70 g/L and 2.97 g/L and 2.41 g/L and 2.77 g/L
- Blood glucose Day 25, individual rats (rats; [9]): 0.97 g/L and 3.16 g/L and 1.69 g/L and 2.98 g/L and 3.96 g/L
- AUC [5, 10]: 645 ng·h/mL
- Cmax [5, 10]: 418 ng/mL
- Vd [5, 10]: 18.6 L/kg
- clearance [5, 10]: 22.9 mL/min/kg
- half-life [5, 10]: 9.4 h
- AUC [5, 11]: 635 ng·h/mL
- Cmax [5, 11]: 426 ng/mL
- Vd [5, 11]: 16 L/kg
- clearance [5, 11]: 23.3 mL/min/kg
- half-life [5, 11]: 7.9 h
- AUC [5, 12]: 980 ng·h/mL
- Cmax [5, 12]: 781 ng/mL
- Vd [5, 12]: 10.9 L/kg
- clearance [5, 12]: 15.5 mL/min/kg
- half-life [5, 12]: 8.1 h
- AUC [5, 13]: 1240 ng·h/mL
- Cmax [5, 13]: 877 ng/mL
- Vd [5, 13]: 8.2 L/kg
- clearance [5, 13]: 12.2 mL/min/kg
- half-life [5, 13]: 7.7 h
- Tmax [5, 12]: 4.98 min
- CL [6, 14]: 4.75 mL/min/kg
- Vd [6, 14]: 8.5 L/kg
- CL [6, 15]: 3.53 mL/min/kg
- Vd [6, 15]: 8.4 L/kg
- AUC [6, 16]: 48.8 ng·h/mL
- Cmax [6, 16]: 5.8 ng/mL
- Tmax [6, 16]: 1.56 h
- half-life [6, 16]: 20.8 h
- AUC [6, 17]: 65.7 ng·h/mL
- Cmax [6, 17]: 6.5 ng/mL
- Tmax [6, 17]: 1.28 h
- half-life [6, 17]: 27.7 h
- AUC [6, 18]: 56.3 ng·h/mL
- Cmax [6, 18]: 6.4 ng/mL
- Tmax [6, 18]: 1.55 h
- clearance [6, 18]: 4.08 mL/min/kg
- half-life [6, 18]: 19.9 h
- Vd ([6]; male, plasma, Period 3: 1 mg oral tacrolimus after single IV infusion of 100 mg Q-Captisol, read-out: Vd): 7.1 L/kg
